The subject of data set [1] is MDR/XDR K. pneumoniae clinical isolates. The experiment in a line: Antimicrobial susceptibility testing, disk diffusion (CLSI). Type of data set: cell-based, Klebsiella pneumoniae. The settings on record: all fifteen isolates, CLSI guidelines. How it is done:
(§1) In this study, fifteen non-duplicate clinical isolates of MDR/XDR K. pneumoniae were obtained from the bacterial repository of the Division of Infectious Diseases and Tropical Medicine, Department of Medicine, Faculty of Medicine Siriraj Hospital, Mahidol University. […] Antimicrobial susceptibility testing was also carried out by the disk diffusion method according to CLSI guidelines ([Clinical and Laboratory Standards Institute, 2021]). Furthermore, all isolates were tested for colistin resistance by broth microdilution based on CLSI recommendations. […] The MDR bacteria was defined as bacteria that are resistant to at least one agent in three or more antimicrobial categories, while the XDR bacteria refer to bacteria that are resistant to at least one agent in all but two or fewer antimicrobial categories based on laboratory results. E. coli ATCC 25922 was used as a reference control strain for susceptibility testing. Other reference strains, including K. pneumoniae ATCC 70063 and K. pneumoniae ATCC BAA-1706 (bla KPC […]), were used as control strains throughout the study.
A general note: Agar diffusion results depend on both activity and mobility in agar.

For data set [2] the test system is unchanged. The experiment in a line: microbe, parasite or virus in culture. The settings on record: Klebsiella pneumoniae. As for the experimental part:
The ability of K11 to inhibit bacterial growth was determined by the broth microdilution method ([Clinical and Laboratory Standards Institute, 2018]). Briefly, a series of 2-fold dilutions of K11 were prepared from 1,024 to 2 µg/mL in cation-adjusted Mueller-Hinton broth (CAMHB), Then 50 µL of each peptide dilution was added to each well of polystyrene 96-well U-bottom microplates. The log-phase cultures were adjusted to 0.5 McFarland standard and diluted 1:100 in CAMHB to provide the density of 10^6 CFU/mL. Consequently, 50 µL of diluted bacterial suspension was added to wells containing 50 µL of peptide solution, followed by incubation for 20-24 h at 37°C. […] To evaluate MBC, a volume of 10 μL was taken from each well with no visible growth, inoculated on Mueller-Hinton agar (MHA) plates, and incubated at 37°C. The MBC was defined as the lowest concentration of antimicrobials that killed at least 99.9% of the initial inoculums ([Clinical and Laboratory Standards Institute, 1999]).

Data set [3] concerns K. pneumoniae ATCC BAA-1706. The format is cell-based, Klebsiella pneumoniae. The settings on record: compared to day 1. How it is done: The resistance development of K11, ciprofloxacin, and colistin was assessed according to the previously described protocol ([Pollard et al., 2012]). Briefly, MIC values for a K. pneumoniae ATCC BAA-1706 were first examined and recorded. […] This inoculum was subjected to another MIC assay. […] The process was repeated for 30 passages. The MIC values for K11 and antibiotics were recorded and plotted as the MIC fold change compared to day 1 of the experiment.

Data set [4] deals with MDR/XDR K. pneumoniae clinical isolates. The experiment in a line: Colistin MIC, broth microdilution (CLSI). The format is cell-based, Klebsiella pneumoniae. The settings on record: all fifteen isolates, resistance defined as MIC ≥4 µg/mL. As for the experimental part: as §1
The conditions of data set [5]: ref Witherell et al., 2021; cited from earlier work. From the text:
K11 is a synthetic peptide derived from natural AMPs (cecropin A1, melittin, and maganin 2), composed of 20 amino acids ([…]-NH2). […] Moreover, K11 has also been successfully used in vivo as a topic hydrogel solution against Acinetobacter baumannii-infected wounds ([Rishi et al., 2018]).

Data on eleven molecules can be found in article PMC10126264, “Synergistic effect and antibiofilm activity of the antimicrobial peptide K11 with conventional antibiotics against multidrug-resistant and extensively drug-resistant Klebsiella pneumoniae” (Frontiers in Cellular and Infection Microbiology, 2023).

≈ marks a conversion by molar mass, not a printed value. Like-named read-outs stand apart in the source and are kept apart here.

In the case of `C[C@H]1[C@H](NC(=O)/C(=N\OC(C)(C)C(=O)O)c2csc(N)n2)C(=O)N1S(=O)(=O)O` [aztreonam], the antimicrobial susceptibility profile result in data set [1] is “resistant”.

With `CO/N=C(\C(=O)N[C@@H]1C(=O)N2C(C(=O)[O-])=C(C[N+]3(C)CCCC3)CS[C@H]12)c1csc(N)n1` [cefepime], the antimicrobial susceptibility profile entry in data set [1] is “resistant”.

`CO[C@@]1(NC(=O)Cc2cccs2)C(=O)N2C(C(=O)O)=C(COC(N)=O)CS[C@@H]21` [cefoxitin]: the antimicrobial susceptibility profile result in data set [1] is recorded as “resistant”.

Take `CC(C)(O/N=C(\C(=O)N[C@@H]1C(=O)N2C(C(=O)[O-])=C(C[n+]3ccccc3)CS[C@H]12)c1csc(N)n1)C(=O)O` [ceftazidime]: the antimicrobial susceptibility profile result in data set [1] is reported as “resistant”.

As to `CO/N=C(\C(=O)N[C@@H]1C(=O)N2C(C(=O)O)=C(CSc3nc(=O)c(=O)[nH]n3C)CS[C@H]12)c1csc(N)n1` [ceftriaxone], the antimicrobial susceptibility profile result in data set [1] is reported as “resistant”.

In the case of `O=C(N[C@H](CO)[C@H](O)c1ccc([N+](=O)[O-])cc1)C(Cl)Cl` [chloramphenicol], the antimicrobial susceptibility profile entry in data set [1] is recorded as “resistant”. This molecule also returned an MIC in data set [2] of 16 µg/mL (≈ 49.5 µM).

As for `O=C(O)c1cn(C2CC2)c2cc(N3CCNCC3)c(F)cc2c1=O` [ciprofloxacin], the MIC fold change came to 16 fold in data set [3] (after 7 serial passages at 0.5×MIC) and 64 fold in data set [3] (after 12 passages at 0.5×MIC, maintained until 30 passages).

With `C[C@@H](O)[C@H]1C(=O)N2C(C(=O)O)=C(S[C@@H]3CN[C@H](C(=O)Nc4cccc(C(=O)O)c4)C3)[C@H](C)[C@H]12` [ertapenem], the antimicrobial susceptibility profile result in data set [1] is given as “resistant”.

`C[C@@H](O)[C@H]1C(=O)N2C(C(=O)O)=C(S[C@@H]3CN[C@H](C(=O)N(C)C)C3)[C@H](C)[C@H]12` [meropenem, reference compound] came in with an MIC in data set [2] of 64 µg/mL (≈ 167 µM).

`CO[C@H]1/C=C/O[C@@]2(C)Oc3c(C)c(O)c4c(O)c(c(/C=N/N5CCN(C)CC5)c(O)c4c3C2=O)NC(=O)/C(C)=C\C=C\[C@H](C)[C@H](O)[C@@H](C)[C@@H](O)[C@@H](C)[C@H](OC(C)=O)[C@@H]1C` [rifampicin] registered an MIC in data set [2] of 32 µg/mL (≈ 38.9 µM).

Take colistin [reference compound]: the “MICs, all isolates” value in data set [4] was at least 4 µg/mL. Also, the “concentration showing significant hemolytic activity” value in data set [5] is “more than 100 μg/mL”.
